Patent US20230047788A1, “COMPOSITIONS COMPRISING 5-CHOLESTEN-3, 25-DIOL, 3-SULFATE (25HC3S) OR PHARMACEUTICALLY ACCEPTABLE SALT THEREOF AND AT LEAST ONE CYCLIC OLIGOSACCHARIDE” (Virginia Commonwealth University, priority 2016, published 2023)
Where “and” joins values, the source holds several entries; their conditions need not be identical. Equal values may be shown once.

Assay: Infusion compatibility of constituted 25HC3S solution with 5% dextrose, 0.9% sodium chloride and two infusion sets
Format: physicochemical
Conditions: for % Remaining after infusion set / Concentration after infusion set / Osmolality after infusion set / pH after infusion set: 0.9% NaCl
Experimental: After constitution with Vehicle, the 30 mg/mL 25HC3S product was diluted into 100 mL of 5% dextrose injection, USP or 0.9% sodium chloride injection, USP, and was administered to subjects as an IV infusion ranging from a 30 mg to 150 mg 25HC3S dose. This was accomplished by adding 1.0 mL (for the 30 mg dose) or 5.0 mL (for the 150 mg dose), or any volume in between, of the 30 mg/mL 25HC3S product into a 100 mL dextrose or sodium chloride infusion bag. The entire admixture content in the infusion bag was infused into the subject over approximately 2 hours at a rate of 50 mL/hour.
A physical and chemical compatibility study was conducted at a 30 mg, 48 mg and 300 mg 25HC3S dose in 5% dextrose and 0.9% sodium chloride infusion bags. Descriptions of the two kinds of infusion sets tested with 25HC3S product diluted in 5% dextrose and 0.9% sodium chloride are listed in Table 15. The tubing in catalog number 2H8480 infusion set was composed of polyvinylchloride (PVC), while the tubing in catalog number 2C8858 was polyethylene lined except for a short pump segment (approximately 12 inches) which was composed of PVC.
25HC3S for Injection and Vehicle for 25HC3S for Injection, that had been stored at 2-8° C. for approximately 16 months, were used for the compatibility study. After constitution, 30 mg (1.0 mL of constituted product), 48 mg (1.6 mL of constituted product) or 300 mg (10 mL of constituted product) were added to 100 mL infusion bags of 5% dextrose and 0.9% sodium chloride, mixed thoroughly, and stored for 24 hours at room temperature and at 2-8° C. […] Taking into consideration the overfill per infusion bag and the additional volume introduced by adding the constituted 25HC3S product to each bag, the expected concentrations of 25HC3S were 0.28 mg/mL, 0.44 mg/mL, and 2.56 mg/mL in the infusion bags. Two kinds of infusion sets were then attached to the drug containing infusion bags, and the entire contents were eluted through the infusion sets at approximately 50 mL/hour at room temperature. Samples were collected from the 25HC3S prepared infusion bags at T=0 and at 24 hours, and from the total eluent passed through the infusion sets, and tested for 25HC3S concentration using HPLC. Solution visual appearance, osmolality (using method USP<785>), and pH (using method USP<791>) were also measured on the collected samples.

[1] = ~0.28 mg/mL, 24 h 2-8°C then Baxter 2C8858
[2] = ~0.28 mg/mL, 24 h 2-8°C then Baxter 2H8480
[3] = ~0.28 mg/mL, 24 h RT then Baxter 2C8858
[4] = ~0.28 mg/mL, 24 h RT then Baxter 2H8480
[5] = ~0.44 mg/mL, 24 h 2-8°C then Baxter 2C8858
[6] = ~0.44 mg/mL, 24 h 2-8°C then Baxter 2H8480
[7] = ~0.44 mg/mL, 24 h RT then Baxter 2C8858
[8] = ~0.44 mg/mL, 24 h RT then Baxter 2H8480
[9] = ~2.56 mg/mL, 24 h 2-8°C then Baxter 2C8858
[10] = ~2.56 mg/mL, 24 h 2-8°C then Baxter 2H8480
[11] = ~2.56 mg/mL, 24 h RT then Baxter 2C8858
[12] = ~2.56 mg/mL, 24 h RT then Baxter 2H8480
[13] = 0.9% sodium chloride bag, ~0.28 mg/mL, 24 Hours at 2-8°C
[14] = 0.9% sodium chloride bag, ~0.28 mg/mL, 24 Hours at RT
[15] = 0.9% sodium chloride bag, ~0.28 mg/mL, T = 0
[16] = 0.9% sodium chloride bag, ~0.44 mg/mL, 24 Hours at 2-8°C
[17] = 0.9% sodium chloride bag, ~0.44 mg/mL, 24 Hours at RT
[18] = 0.9% sodium chloride bag, ~0.44 mg/mL, T = 0
[19] = 0.9% sodium chloride bag, ~2.56 mg/mL, 24 Hours at 2-8°C
[20] = 0.9% sodium chloride bag, ~2.56 mg/mL, 24 Hours at RT
[21] = 0.9% sodium chloride bag, ~2.56 mg/mL, T = 0

Compound: C[C@H](CCCC(C)(C)O)[C@H]1CC[C@H]2[C@@H]3CC=C4C[C@@H](OS(=O)(=O)[O-])CC[C@]4(C)[C@H]3CC[C@]12C.[Na+] [25HC3S, 5-cholesten-3, 25-diol, 3-sulfate]
- % Remaining after infusion set [1]: (100.0%)
- Concentration after infusion set [1]: 275 µg/mL
- Osmolality after infusion set [1]: 276 mmol/kg
- pH after infusion set [1]: 5.78
- % Remaining after infusion set [2]: (100.4%)
- Concentration after infusion set [2]: 275 µg/mL
- Osmolality after infusion set [2]: 277 mmol/kg
- pH after infusion set [2]: 5.81
- % Remaining after infusion set [3]: (100.0%)
- Concentration after infusion set [3]: 274 µg/mL
- Osmolality after infusion set [3]: 276 mmol/kg
- pH after infusion set [3]: 5.83
- % Remaining after infusion set [4]: (99.6%)
- Concentration after infusion set [4]: 272 µg/mL
- Osmolality after infusion set [4]: 276 mmol/kg
- pH after infusion set [4]: 5.78
- % Remaining after infusion set [5]: (100.2%)
- Concentration after infusion set [5]: 426 µg/mL
- Osmolality after infusion set [5]: 281 mmol/kg
- pH after infusion set [5]: 7.16
- % Remaining after infusion set [6]: (100.0%)
- Concentration after infusion set [6]: 434 µg/mL
- Osmolality after infusion set [6]: 282 mmol/kg
- pH after infusion set [6]: 7.13
- % Remaining after infusion set [7]: (100.0%)
- Concentration after infusion set [7]: 424 µg/mL
- Osmolality after infusion set [7]: 288 mmol/kg
- pH after infusion set [7]: 7.20
- % Remaining after infusion set [8]: (99.8%)
- Concentration after infusion set [8]: 433 µg/mL
- Osmolality after infusion set [8]: 286 mmol/kg
- pH after infusion set [8]: 7.09
- % Remaining after infusion set [9]: (99.8%)
- Concentration after infusion set [9]: 2520 µg/mL
- Osmolality after infusion set [9]: 283 mmol/kg
- pH after infusion set [9]: 5.70
- % Remaining after infusion set [10]: (100.0%)
- Concentration after infusion set [10]: 2530 µg/mL
- Osmolality after infusion set [10]: 283 mmol/kg
- pH after infusion set [10]: 5.72
- % Remaining after infusion set [11]: (99.6%)
- Concentration after infusion set [11]: 2520 µg/mL
- Osmolality after infusion set [11]: 279 mmol/kg
- pH after infusion set [11]: 5.83
- % Remaining after infusion set [12]: (100.4%)
- Concentration after infusion set [12]: 2460 µg/mL
- Osmolality after infusion set [12]: 283 mmol/kg
- pH after infusion set [12]: 5.81
- Concentration [13]: 275 µg/mL
- Osmolality [13]: 276 mmol/kg
- pH [13]: 5.87 and 5.99
- Concentration [14]: 272 µg/mL and 274 µg/mL
- Osmolality [14]: 275 mmol/kg and 277 mmol/kg
- pH [14]: 5.93 and 5.92
- Osmolality [15]: 278 mmol/kg and 277 mmol/kg
- T = 0 Conc. [15]: 0.273 mg/mL and 0.274 mg/mL and 0.275 mg/mL
- pH [15]: 6.39 and 6.43 and 6.45 and 6.40
- % Remaining Compared to T = 0 [16]: (100.0%)
- Concentration [16]: 434 µg/mL and 425 µg/mL
- Osmolality [16]: 281 mmol/kg
- pH [16]: 7.43 and 7.19
- % Remaining Compared to T = 0 [17]: (100.0%)
- Concentration [17]: 434 µg/mL and 424 µg/mL
- Osmolality [17]: 280 mmol/kg
- pH [17]: 7.33 and 7.41
- Osmolality [18]: 277 mmol/kg and 279 mmol/kg and 284 mmol/kg and 280 mmol/kg
- T = 0 Conc. [18]: 0.434 mg/mL and 0.424 mg/mL and 0.425 mg/mL
- pH [18]: 7.30 and 7.43 and 7.21 and 7.44
- Concentration [19]: 2510 µg/mL and 2520 µg/mL
- Osmolality [19]: 283 mmol/kg
- pH [19]: 5.93 and 5.96
- Concentration [20]: 2500 µg/mL and 2525 µg/mL
- Osmolality [20]: 282 mmol/kg
- pH [20]: 6.01 and 5.86
- Osmolality [21]: 282 mmol/kg and 281 mmol/kg
- T = 0 Conc. [21]: 2.450 mg/mL and 2.530 mg/mL and 2.525 mg/mL
- pH [21]: 6.20 and 6.10 and 6.07 and 6.11
- deviation of concentrations from initial T=0 time point (0.9% sodium chloride, 24 hours at RT and 2-8°C and after elution through infusion sets): ≤ 2.0%
- Concentration (5% dextrose bag, ~0.28 mg/mL, 24 Hours at 2-8°C): 280 µg/mL
